These results are taken from patent US12053473B2, “Benzylamino substituted quinazolines and derivatives as SOS1 inhibitors” (priority 2016, dated 2024).

For assay [1], the system named is cleaved PARP in NCI-H358 (KRAS G12C) NSCLC cells. It is filed as cell-based, human. To be noted: NCI-H358, 3D, 10% serum; 1 μM I-13, 125 nM afatinib, alone or combined; 24 h, 48 h, 72 h.
Assay [2] relates to KRAS G12C mutant MIA PaCa-2 pancreatic xenograft. The class given is in vivo, mouse. As to conditions: monotherapy. As to the method: In Vivo Efficacy Experiments
Cultures are incubated at 37° C. and 5% CO2 in a humidified atmosphere, with medium change or subcultivation performed 2-3 times a week. For injection tumor cells are mixed with PBS including 5% FCS and Matrigel in a ratio of 1:1. 1×10EXP7 cells in a volume of 100 μL are injected subcutaneous in each mouse to establish tumors. […] The vehicle control, trametinib, 1-13 or the respective combination is administered intragastrically using a gavage needle at an application volume of 10 mL/kg in a volume of 10 mL/kg per mouse daily twice with a 6 h difference. Trametinib is dissolved in 0.5% DMSO and 0.5% Natrosol. Paclitaxel is formulated in 0.9% NaCl and is applied intravenously once a week at 10 mg/kg in a volume of 10 mL/kg. […]
Standardized irradiated diet (PROVIMI KLIBA) and autoclaved tap water are provided ad libitum. Microchips implanted subcutaneously under isoflurane anesthesia are used to identify each mouse. Cage cards showing the study number, the animal number, the compound and dose level, the administration route as well as the schedule remain with the animals throughout the study. The tumor diameter is measured two-three times a week with a caliper. The volume of each tumor [in mm^3] is calculated according to the formula “tumor volume=length*diameter2*π/6”. To monitor side effects of treatment, mice are inspected daily for abnormalities and body weight is determined daily. Animals are sacrificed at the end of the study. Animals with necrotic tumors or tumor sizes exceeding 1500 mm^3 are sacrificed early during the study for ethical reasons.
All compounds were applied twice daily per os (p.o.).

Assay [3] concerns phosphorylation of MEK1/2 (Ser217/221) in MIA PaCa-2 cells (KRAS G12C). The experiment in a line: MEK phosphorylation (Western blot) in MIA PaCa-2 cells. As to conditions: MIA PaCa-2, 2D; 25 nM trametinib alone or with 1 μM I-13; 2 h, 4 h, 8 h. It is filed as cell-based, human. From the text:
ERK and MEK Phosphorylation to Investigate the Combinatorial Effect of SOS1 Inhibitors with MEK Inhibitors
ERK and MEK phosphorylation assays are also used to investigate combinatorial effects of SOS1 inhibitors with MEK inhibitors, e.g. in MIA PaCa-2 cells.
• 96-well Ultra low binding plates from Corning (CLS2474-24EA); • DMEM (Lonza BE12-604F); • Fetal Bovine Serum (FBS) from HyClone (SH30071.03); • Cell lysate buffer (CLB):10× (Cell Signaling, Cat #9803)
For lysis of the cells a 1.2 fold concentrated CLB is used including the following supplements: 120 μL Cell Lysis Buffer 10×(Cell Signaling, Cat #9803)+870 μL H2O is supplemented with 10 μL HALT Protease & Phosphatase Inhibitor Cocktail (Thermo Scientific, Prod #1861281)+1 μL PMSF Stock sol. (Sigma, Cat #P7626) […]
ImageQuant LAS 4000 is used to induce a Chemilumescence signal that is detected with an Amersham Hyperfilm MP (GE Healthcare, Cat #28906847). […] Band quantification is performed by using the software “Image Quant TL” from GE Health.
MIA PaCa-2 cells are seeded at 1.16×E6 cells per 6 well plate in 2 mL DMEM medium supplemented with 2% FCS in 6 well plates. […] The protein concentration of the cell lysate is quantified by Bradford protein assay according to the manufacturer's instructions. […]
. Cell lysate was generated at the respective timepoints and the effect on ERK or MEK phosphorylation was analysed using Western-blotting. […]
For orientation: A western blot detects proteins with antibodies after separation by electrophoresis.

In assay [4] the test system is phosphorylation of ERK1/2 (Thr202/Tyr204) in MIA PaCa-2 cells (KRAS G12C). As to conditions: MIA PaCa-2, 2D; 50 nM trametinib.
Protocol: Secondary Antibody (incubated 1 h at room temperature): Use a blocking buffer with a 1:1000 dilution of the anti-Rabbit IgG-HRP (Dako, Cat #P0448)
ECL Western Blotting Detection Reagents (GE Healthcare, Cat #RPN2106)
The film is developed with the device Protec Optimax. Band quantification is performed by using the software “Image Quant TL” from GE Health.
Cells are incubated over night at 37° C. with 5% CO2. The next day inhibitors are added with a HP D300 digital Dispenser. Following addition of the respective inhibitor the 6-well plate is incubated for 24 h, 48 h or 72 h, respectively. At the respective timepoint cells are lysed. […] Following this the lysate is centrifuged (16000 rpm, 4° C. for 15 minutes) and the supernatant is stored at −80° C. and used for subsequent steps. The protein concentration of the cell lysate is quantified by Bradford protein assay according to the manufacturer's instructions. […]
The target of assay [5] is SOS1 and KRAS G12D (protein-protein interaction) (Homo sapiens, UniProt Q07889). Put plainly: KRAS::SOS1 AlphaScreen binding assay. To be noted: read-out: IC50 (SOS1). In short, it runs like this:
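Compounds were tested in duplicate at 11 concentrations (1:5 serial from 100 μM, 1% DMSO). They were preincubated 30 min with final 10 nM KRAS G12D, 10 μM GDP and 5 nM GST-SOS1, then glutathione acceptor and streptavidin donor beads (10 μg/mL each) were added for 60 min at RT in the dark. AlphaScreen signal gave IC50 via 4-parameter logistic fit.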
(In general: Alpha assays give light when donor and acceptor beads are brought close together.)

Like-named read-outs stand apart in the source and are kept apart here.

Take `CN(C)C/C=C/C(=O)Nc1cc2c(Nc3ccc(F)c(Cl)c3)ncnc2cc1O[C@H]1CCOC1` [afatinib]: the “apoptosis induction (levels of cleaved PARP)” value in assay [1] is “needed 48 h to show apoptosis induction”. The TGI is the reduction of tumour growth relative to the control group. Take `CC(=O)O[C@H]1C(=O)[C@@]2(C)[C@H]([C@H](OC(=O)c3ccccc3)[C@]3(O)C[C@H](OC(=O)[C@H](O)[C@@H](NC(=O)c4ccccc4)c4ccccc4)C(C)=C1C3(C)C)[C@]1(OC(C)=O)CO[C@@H]1C[C@@H]2O` [paclitaxel]: in assay [2] (paclitaxel 10 mg/kg q7d i.v., day 22), the TGI turned out to be 62%. In the case of `CC(=O)Nc1cccc(-n2c(=O)n(C3CC3)c(=O)c3c(Nc4ccc(I)cc4F)n(C)c(=O)c(C)c32)c1` [trametinib], the “levels of phosphorylated MEK1/2 (Ser 217/221)” value in assay [3] is given as “increased levels of MEK1/2 (Ser 217/221)”. In addition, the values for the TGI in assay [2] (trametinib 0.05 mg/kg twice daily p.o.) and in assay [2] (trametinib 0.125 mg/kg twice daily p.o.) were 50% and 73%, respectively. In addition, the tumor regressions result in assay [2] (trametinib 0.125 mg/kg or 0.05 mg/kg twice daily p.o.) is recorded as “no regressions in any tumors”. For the same molecule, in assay [4], the “reduction of ERK1/2 (Thr 202/Tyr 204) phosphorylation levels compared to untreated control cells” value is recorded as 65-75%.

Consider `Nc1ccn([C@@H]2O[C@H](CO)[C@@H](O)C2(F)F)c(=O)n1` [gemcitabine], for which the TGI in assay [2] (gemcitabine 50 mg/kg q4d i.p.) is 4%. For orientation: IC50 means the concentration at which inhibition is half-maximal. In the case of `Cc1nc(N[C@H](C)c2cc(N)cc(C(F)(F)F)c2)c2cc([C@H]3CC[C@H](C(=O)N(C)C)CC3)c(C)cc2n1` [I-352], the IC50 in assay [5] was 2 nM. On to `Cc1nc(N[C@H](C)c2cccc(C(F)(F)F)c2)c2cc(-c3ccc(=O)n(CC(N)=O)c3)ccc2n1` [I-343], for which the IC50 in assay [5] (values marked with * in the table) came out at 40 nM.
